Tests used:
CYP3A4 = assay: Clinical drug-drug interaction study (Study BGB-3111-108), CYP3A4; format: in vivo; conditions: clinical drug-drug interaction study BGB-3111-108
CYP2C19 = assay: Clinical drug-drug interaction study (Study BGB-3111-108), CYP2C19; format: in vivo; conditions: clinical drug-drug interaction study BGB-3111-108
[1] = test system: patients with B-cell malignancies; conditions: 320 mg per day (160 mg twice a day); cited from earlier work

CYP3A4 induction (CYP3A4): mild inducer
CYP2C19 induction (CYP2C19): mild inducer
Structure (SMILES): C=CC(=O)N1CCC([C@@H]2CCNc3c(C(N)=O)c(-c4ccc(Oc5ccccc5)cc4)nn32)CC1 [zanubrutinib, (S)-7-(1-acryloylpiperidin-4-yl)-2-(4-phenoxyphenyl)-4,5,6,7-tetrahydropyrazolo[1,5-a]pyrimidine-3-carboxamide]
efficacy in patients with B-cell malignancies [1]: efficacious
tolerability in patients with B-cell malignancies [1]: well tolerated

From patent US20250249010A1, “METHODS FOR TREATING PRIMARY MEMBRANOUS NEPHROPATHY” (BEIGENE SWITZERLAND GMBH, priority 2022, published 2025)
